From publication PMC12366525, “Characterization of allosteric modulators that disrupt androgen receptor co-activator protein-protein interactions to alter transactivation–Drug leads for metastatic castration resistant prostate cancer” (SLAS discovery : advancing life sciences R & D, 2023) come the findings set out here.

Holding throughout (assay type): cell-based
For data set [1], the target named is T1, TIF2 (Homo sapiens, UniProt Q15596).
T1 construct: endogenous in cells; host or cells: C4–2 cells
Briefly: Western blotting cellular thermal shift assay for TIF2 in C4–2 cells. Particulars: 20 μM 1 h at 37 °C prior to heat shock at 46 °C. As to the method: C4–2 cells were harvested by trypsinization, washed 1x by centrifugation at 270 × g for 5 min and resuspension in PBS, counted, centrifugated at 270 × g for 5 min and resuspended at 7 × 10 [6] cells per mL in Opti-MEM medium (Gibco, Gaithersburg, MD). 50 μL of C4–2 cell suspension (3.5 × 10 [5] cells) were then transferred to PCR tubes that were placed in a T-100 thermocycler (BioRad, Hercules, CA) and a 2 °C interval temperature step gradient from 37 °C to 53 °C was applied. Cells were maintained at each step of the temperature gradient for 5 min and then tubes were withdrawn and placed on ice. 50 μL of cell lysis buffer, 500 mM NaCl, 1% NP-40, 1x protease inhibitor cocktail in PBS were added to the heat shocked cell suspensions in PCR tubes and placed on ice for an additional 30 min. Cell lysates were then centrifuged at 14,000 RPM (18,800 × g) at 4 °C for 15 min and supernatants were transferred to new tubes and protein concentrations were determined in a bicinchoninic acid (BCA) assay. 45 μL of cell lysis supernatants were mixed with 15 μL of 5x SDS-PAGE sample buffer and placed in a heat block at 100 °C for 5 min. The protein constituents of heat shocked C4–2 cell lysis supernatants were separated by SDS-PAGE on 8% separating gels, transferred to nitrocellulose membranes that were blocked for 1 h at room temperature in 5% non-fat milk in TBST, and then probed overnight at 4 °C with a 1:1000 dilution of either rabbit anti-AR (Cell Signaling, Danvers, MA) or rabbit anti-TIF2 (Bethyl Laboratories, Waltham, MA) primary antibodies in TBST containing 5% non-fat milk. Membranes were then washed 3x in TBST buffer for 10 min, then incubated with a 1:10,000 dilution of the goat anti-rabbit IgG HRP conjugated secondary antibody (Invitrogen, Carlsbad,CA) in TBST containing 5% non-fat milk for 1 h at room temperature. Western blots were then washed 3x in TBST buffer and developed with Pierce ECL western blotting substrate. Images of ECL western blots were acquired on an iBright 1500 imaging system and quantified using the iBright image analysis software.

Data set [2] is described as follows: M2H viability counter screen. Particulars: human, HEK 293 cells; cytotoxicity counter screen; read-out: M2H viability CS GI50.
In data set [3] the test system is 22Rv1 cells. Briefly: Prostate cancer cell line growth inhibition assay, 22Rv1. The note with it: read-out: 22Rv1 GI50 (AR+). As to the method: The PC-3, DU-145, LNCaP, C4–2, and 22Rv1 PC cell line growth inhibition assays have been described previously. On day 1, each PC cell line was harvested, counted, and seeded into two 384-well assay plates, a time zero (T0) and a time 72 h (T72) plate. PC cell lines were all seeded at 1000 cells per well in 45 μL of tissue culture media in uncoated white clear bottom 384-well assay plates (VWR, # 82050–076) using a Matrix electronic multichannel pipette (Thermo Fisher Scientific, Waltham, MA) and cultured overnight at 37 °C, 5% CO2, and 95% humidity. On day 2, 25 μL of the Cell Titer Glo (CTG) (Promega Corporation, Madison, WI) detection reagent was dispensed into the wells of the T0 assay plate using a Matrix electronic multichannel pipette, and the RLUs were captured on the SpectraMax M5e (Molecular Devices LLC, Sunnyvale, CA) microtiter plate reader. Also on day 2, 5 μL of compounds were transferred into the test wells of the T72 384-well assay plates which were returned to the incubator for 72 h. Control wells received DMSO alone. On day 5, 25 μL of the CTG detection reagent was dispensed into the wells of the T72 assay plate using a Matrix electronic multichannel pipette, and the RLU’s were captured on the SpectraMax M5e microtiter plate reader platform.
In 384-well assays, DMSO minimum (n = 32) and maximum (n = 32) plate control wells were utilized to calculate signal-to-background ratios (S:B) and Z’-factor coefficient assay performance quality control statistics, and to normalize the signals of compound treated wells and to represent 0% and 100% respectively. For the 96-well AR-LBD H^3-DHT radioligand binding assay, eight minimum and maximum plate control wells were utilized to normalize the data. For the PC cell line growth inhibition assays we used the DMSO control data from the T0 and T72 assay plates to assess the dynamic range of the T0 to T72 cell growth, and to calculate S:B ratios and Z’-factor coefficient statistics for the assay signal window (T0 to T72). To normalize the 72 h compound exposure PC growth inhibition data, the signals from the compound treated wells were processed and expressed as% of the T72 DMSO plate controls. IC50 and GI50 values for each of the bioassays were calculated using Graph-Pad Prism 9 software to plot and fit data to curves using the Sigmoidal dose response variable slope equation Y = Bottom + [Top-Bottom]/ [1 + 10^^(LogEC50-X)*HillSlope].

Like-named read-outs stand apart in the source and are kept apart here.

T1 sequence (Q15596 whole entry): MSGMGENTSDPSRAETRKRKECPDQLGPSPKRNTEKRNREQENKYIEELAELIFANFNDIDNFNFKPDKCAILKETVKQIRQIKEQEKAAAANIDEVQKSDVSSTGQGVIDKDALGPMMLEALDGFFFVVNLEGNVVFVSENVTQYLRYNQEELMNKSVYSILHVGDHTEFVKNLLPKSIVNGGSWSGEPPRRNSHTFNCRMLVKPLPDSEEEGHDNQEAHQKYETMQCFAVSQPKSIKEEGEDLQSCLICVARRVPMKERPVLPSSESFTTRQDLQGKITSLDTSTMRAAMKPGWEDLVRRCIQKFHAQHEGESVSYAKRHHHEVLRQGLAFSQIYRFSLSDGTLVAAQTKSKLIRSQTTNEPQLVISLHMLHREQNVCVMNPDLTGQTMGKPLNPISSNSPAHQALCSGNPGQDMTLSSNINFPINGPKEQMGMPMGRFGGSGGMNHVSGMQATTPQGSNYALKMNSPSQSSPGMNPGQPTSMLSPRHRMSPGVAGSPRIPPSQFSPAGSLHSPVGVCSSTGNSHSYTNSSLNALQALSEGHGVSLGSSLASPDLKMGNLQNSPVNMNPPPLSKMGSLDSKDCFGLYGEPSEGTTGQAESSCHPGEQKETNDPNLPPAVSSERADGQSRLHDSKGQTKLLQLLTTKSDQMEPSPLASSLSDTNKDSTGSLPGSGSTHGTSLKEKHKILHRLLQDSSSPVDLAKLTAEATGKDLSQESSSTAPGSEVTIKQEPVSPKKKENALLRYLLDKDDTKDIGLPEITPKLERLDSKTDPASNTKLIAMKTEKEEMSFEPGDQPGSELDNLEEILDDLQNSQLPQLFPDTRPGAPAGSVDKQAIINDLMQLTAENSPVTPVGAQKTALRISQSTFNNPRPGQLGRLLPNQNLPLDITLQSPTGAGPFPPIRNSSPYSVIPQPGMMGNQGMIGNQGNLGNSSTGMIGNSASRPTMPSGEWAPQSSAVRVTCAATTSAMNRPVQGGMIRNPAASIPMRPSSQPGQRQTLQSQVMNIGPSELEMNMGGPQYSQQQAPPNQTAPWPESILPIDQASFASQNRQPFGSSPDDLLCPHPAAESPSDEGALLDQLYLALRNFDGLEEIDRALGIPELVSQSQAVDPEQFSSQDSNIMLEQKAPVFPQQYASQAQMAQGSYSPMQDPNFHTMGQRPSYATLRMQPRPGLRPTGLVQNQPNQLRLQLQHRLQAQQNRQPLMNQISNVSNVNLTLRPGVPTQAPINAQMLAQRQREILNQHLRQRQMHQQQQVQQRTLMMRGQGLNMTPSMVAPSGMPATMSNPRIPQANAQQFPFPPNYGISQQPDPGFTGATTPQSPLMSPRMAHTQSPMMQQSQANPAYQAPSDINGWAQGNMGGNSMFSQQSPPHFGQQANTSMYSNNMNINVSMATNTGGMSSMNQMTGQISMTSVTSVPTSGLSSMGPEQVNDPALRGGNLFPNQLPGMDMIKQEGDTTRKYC

Regarding `Cc1ccccc1-c1cc(O)c2c(c1)CN(c1nc(C(N)=O)cs1)CCO2` [S1–1], the “Effect on TIF2 thermal stability” value in data set [1] is given as “did not enhance TIF2 thermal stability over DMSO”. The GI50 in data set [2] was 58.6 µM; in data set [3] (Homo sapiens, 22Rv1, 72 h), 55.5 µM.
Regarding `Cc1ccccc1-c1cc(O)c2c(c1)CN(c1nccs1)CCO2` [S1–3], the GI50 in data set [3] (72 h) turned out to be 75.2 µM.
`Cc1nsc(NC(=O)N2CCC(Sc3ccccc3C)CC2)n1` [S2–6]: the “Effect on TIF2 thermal stability” value in data set [1] is listed as “did not enhance TIF2 thermal stability over DMSO”. For the same compound, the concentration for 50% growth inhibition (GI50) was greater than 100 µM in data set [2] and 17.6 µM in data set [3] (Homo sapiens, 22Rv1, 72 h).
The corresponding values for `Cc1c(-c2ccccc2F)[nH]c2ccc(CNC(=O)CCc3cn[nH]c3)cc12` [S3–11] are “did not enhance TIF2 thermal stability over DMSO”, 69.2 µM and 15 µM.
In the case of `Cc1c(-c2ccccc2F)[nH]c2ccc(CNC(=O)CCc3cnccn3)cc12` [S3–12], the GI50 in data set [2] is greater than 100 µM; in data set [3] (Homo sapiens, 22Rv1, 72 h) it was 20.5 µM.
For `CC(=O)NCCC(=O)NCc1ccc2[nH]c(-c3ccccc3F)c(C)c2c1` [S3–13] the same measures were greater than 100 µM and greater than 100 µM.
For `Cc1c(-c2ccccc2F)[nH]c2ccc(CNC(=O)c3ccc(CO)o3)cc12` [S3–14] the same measures were greater than 100 µM and 102 µM.
The corresponding values for `Cc1c(-c2ccc(F)cc2)[nH]c2ccc(CNC(=O)c3ccc(CO)o3)cc12` [S3–15] are greater than 100 µM and 17.4 µM.
